Results taken from US20230089073A1 (Carmot Therapeutics, Inc., priority 2021, published 2023).

target: T1, human GLP-1 receptor (Homo sapiens, UniProt P43220); test: GLP-1R cAMP Assay; type: cell-based; details: not given
T1 construct: expressed in transfected cells
Method in brief: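 Luminescent enzyme-complementation detection of cAMP, read after cell lysis and overnight incubation, with dose-response curve fitting. Stimulation lasted 30 min, using 20-point triplicate dosing on CHO cells (10,000 per well) stably overexpressing human GLP-1R.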

T1 sequence (P43220 24-463): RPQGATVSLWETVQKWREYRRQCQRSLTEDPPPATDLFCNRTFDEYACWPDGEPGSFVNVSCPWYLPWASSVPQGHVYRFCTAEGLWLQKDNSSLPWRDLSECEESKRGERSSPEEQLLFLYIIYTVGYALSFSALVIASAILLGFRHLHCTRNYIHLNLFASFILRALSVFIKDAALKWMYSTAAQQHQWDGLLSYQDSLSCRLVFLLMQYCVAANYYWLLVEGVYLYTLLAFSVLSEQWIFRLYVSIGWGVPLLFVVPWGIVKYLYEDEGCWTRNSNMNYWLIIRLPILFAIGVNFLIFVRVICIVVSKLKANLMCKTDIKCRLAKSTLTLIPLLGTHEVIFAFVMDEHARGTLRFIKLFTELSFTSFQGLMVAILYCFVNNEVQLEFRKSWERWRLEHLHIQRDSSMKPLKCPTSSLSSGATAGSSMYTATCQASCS

Row | EC50 [nM] | SMILES
1 | < 50 | C[C@H]1C[C@@H](Oc2ccnc(COc3ccc(C#N)cc3F)c2)CCN1Cc1nc2ccc(C(=O)O)cc2n1C[C@@H]1CCO1 [Compound 363]

same assay, conditions: cAMP accumulation in CHO cells stably overexpressing the human GLP-1 receptor; 30 min treatment; HitHunter cAMP kit; read-out: EC50

Row | EC50 [nM] | SMILES
2 | < 50 | CCn1cncc1Cn1c(CN2CCC(Oc3ccnc(COc4ccc(Cl)cc4F)c3)CC2)nc2ccc(C(=O)O)cc21 [Example 230, 2-((4-((2-((4-Chloro-2-fluorophenoxy)methyl)pyridin-4-yl)oxy)piperidin-1-yl)methyl)-1-((1-ethyl-1H-imidazol-5-yl)methyl)-1H-benzo[d]imidazole-6-carboxylic acid]
3 | > 500 | O=C(O)c1ccc2nc(CN3CCN(Cc4ccc(OCc5ccc(Cl)cc5Cl)o4)CC3)n(C[C@@H]3CCO3)c2c1 [Example 74, (S)-2-((4-((5-((2,4-Dichlorobenzyl)oxy)furan-2-yl)methyl)piperazin-1-yl)methyl)-1-(oxetan-2-ylmethyl)-1H-benzo[d]imidazole-6-carboxylic acid]
4 | < 50 | O=C(O)c1ccc2nc(CN3CCC(Oc4cccc(COc5ccc(Cl)cc5Cl)c4)CC3)n(Cc3cnco3)c2c1 [Example 216, 2-((4-(3-((2,4-Dichlorophenoxy)methyl)phenoxy)piperidin-1-yl)methyl)-1-(oxazol-5-ylmethyl)-1H-benzo[d]imidazole-6-carboxylic acid]
5 | < 50 | O=C(O)c1ccc2nc(CN3CCC(Oc4cc(COc5ccc(Cl)cc5F)ncc4F)CC3)n(C[C@@H]3CCO3)c2c1 [Compound 380, (S)-2-((4-((2-((4-chloro-2-fluorophenoxy)methyl)-5-fluoropyridin-4-yl)oxy)piperidin-1-yl)methyl)-1-(oxetan-2-ylmethyl)-1H-benzo[d]imidazole-6-carboxylic acid]
6 | < 50 | C[C@H]1C[C@@H](Oc2ccnc(COc3ccc(C4CC4)cc3C#N)n2)CCN1Cc1nc2c(F)cc(C(=O)O)cc2n1C[C@@H]1CCO1 [Compound 509, 2-(((2S,4S)-4-((2-((2-cyano-4-cyclopropylphenoxy)methyl)pyrimidin-4-yl)oxy)-2-methylpiperidin-1-yl)methyl)-4-fluoro-1-(((S)-oxetan-2-yl)methyl)-1H-benzo[d]imidazole-6-carboxylic acid]
7 | < 50 | C[C@H]1C[C@@H](Oc2ccnc(COc3ccc(C#N)cc3F)n2)CCN1Cc1nc2ncc(C(=O)O)cc2n1C[C@@H]1CCO1 [Compound 513, 2-{[(2S,4S)-4-({2-[(4-cyano-2-fluorophenoxy)methyl]pyrimidin-4-yl}oxy)-2-methylpiperidin-1-yl]methyl}-1-{[(2S)-oxetan-2-yl]methyl}-1H-imidazo[4,5-b]pyridine-6-carboxylic acid]
8 | < 50 | N#Cc1cc(C2CC2)ccc1OCc1nccc(OC2CCN(Cc3nc4ccc(C(=O)O)cc4n3C[C@@H]3CCO3)CC2)n1 [Compound 476, 2-{[4-({2-[(2-cyano-4-cyclopropylphenoxy)methyl]pyrimidin-4-yl}oxy)piperidin-1-yl]methyl}-1-{[(2S)-oxetan-2-yl]methyl}-1H-1,3-benzodiazole-6-carboxylic acid]
9 | < 50 | N#Cc1ccc(OCc2cc(OC3CCN(Cc4nc5ccc(C(=O)O)cc5n4C[C@@H]4CCO4)CC3)c(F)cn2)c(F)c1 [Example 367, (S)-2-((4-((2-((4-Cyano-2-fluorophenoxy)methyl)-5-fluoropyridin-4-yl)oxy)piperidin-1-yl)methyl)-1-(oxetan-2-ylmethyl)-1H-benzo[d]imidazole-6-carboxylic acid]
10 | 50 to 500 | Cc1ccc(N(C)c2cccc(OC3CCN(Cc4nc5ccc(C(=O)O)cc5n4C[C@@H]4CCO4)CC3)c2)c(Cl)c1 [Example 111, (S)-2-((4-(3-((2-Chloro-4-methylphenyl)(methyl)amino)phenoxy)piperidin-1-yl)methyl)-1-(oxetan-2-ylmethyl)-1H-benzo[d]imidazole-6-carboxylic acid]
11 | < 50 | CCn1cncc1Cn1c(CN2CCC(C(F)(F)c3cccc(COc4ccc(C)cc4Cl)c3)CC2)nc2ccc(C(=O)O)cc21 [Example 132, 2-((4-((3-((2-Chloro-4-methylphenoxy)methyl)phenyl)difluoromethyl)piperidin-1-yl)methyl)-1-((1-ethyl-1H-imidazol-5-yl)methyl)-1H-benzo[d]imidazole-6-carboxylic acid]
12 | > 500 | N#Cc1ccc(COc2cccc(C3CCN(C(=O)c4ccc(C(=O)O)nc4)CC3)n2)c(F)c1 [Example 91, 5-(4-(6-((4-Cyano-2-fluorobenzyl)oxy)pyridin-2-yl)piperidine-1-carbonyl)picolinic acid]
13 | < 50 | C[C@H]1CN(C(=O)c2cnc(COc3ccc(Cl)cc3Cl)o2)CCN1Cc1nc2ccc(C(=O)O)cc2n1C[C@@H]1CCO1 [Example 186, 2-(((S)-4-(2-((2,4-Dichlorophenoxy)methyl)oxazole-5-carbonyl)-2-methylpiperazin-1-yl)methyl)-1-(((S)-oxetan-2-yl)methyl)-1H-benzo[d]imidazole-6-carboxylic acid]

Further lines, the compound ahead of its results:

Row | SMILES | EC50 [nM]
14 | Cc1ccc(OCc2cccc(C(=O)N3CCN(Cc4nc5ccc(C(=O)O)cc5n4C[C@@H]4CCO4)CC3)c2)c(Cl)c1 [Compound 64, 2-[(4-{3-[(2-chloro-4-methylphenoxy)methyl]benzoyl}piperazin-1-yl)methyl]-1-{[(2S)-oxetan-2-yl]methyl}-1H-1,3-benzodiazole-6-carboxylic acid] | 50 to 500
15 | CCn1cncc1Cn1c(CN2CCC(Cc3ccc(COc4ccc(Cl)cc4Cl)o3)CC2)nc2ccc(C(=O)O)nc21 [Compound 108, 2-{[4-({5-[(2,4-dichlorophenoxy)methyl]furan-2-yl}methyl)piperidin-1-yl]methyl}-3-[(1-ethyl-1H-imidazol-5-yl)methyl]-3H-imidazo[4,5-b]pyridine-5-carboxylic acid] | < 50
16 | C[C@H]1C[C@@H](Oc2ccnc(COc3ccc(C(F)(F)F)cc3F)n2)CCN1Cc1nc2ccc(C(=O)O)cc2n1C[C@@H]1CCO1 [Compound 376] | < 50
17 | O=C(O)c1ccc2nc(CN3CCC(Cc4cccc(COc5ccc(Cl)cc5Cl)c4F)CC3)n(C[C@@H]3CCO3)c2c1 [Compound 135, 2-{[4-({3-[(2,4-dichlorophenoxy)methyl]-2-fluorophenyl}methyl)piperidin-1-yl]methyl}-1-{[(2S)-oxetan-2-yl]methyl}-1H-1,3-benzodiazole-6-carboxylic acid] | 50 to 500
18 | CCn1cncc1Cn1c(CN2CCC(Cc3cc(F)cc(COc4ccc(Cl)cc4Cl)c3)CC2)nc2ccc(C(=O)O)cc21 [Compound 133, 2-{[4-({3-[(2,4-dichlorophenoxy)methyl]-5-fluorophenyl}methyl)piperidin-1-yl]methyl}-1-[(1-ethyl-1H-imidazol-5-yl)methyl]-1H-1,3-benzodiazole-6-carboxylic acid] | < 50
19 | O=C(c1ccc(-c2nnn[nH]2)nc1)N1CCC(Cc2ccc(COc3ccc(Cl)cc3Cl)o2)CC1 [Compound 107, 5-[4-({5-[(2,4-dichlorophenoxy)methyl]furan-2-yl}methyl)piperidine-1-carbonyl]-2-(1H-1,2,3,4-tetrazol-5-yl)pyridine] | > 500
20 | O=C(O)c1ccc2nc(CN3CCC(Oc4ccnc(COc5ccc(Cl)cc5Cl)c4)CC3)n(C[C@@H]3CCO3)c2c1 [Compound 168, 2-{[4-({2-[(2,4-dichlorophenoxy)methyl]pyridin-4-yl}oxy)piperidin-1-yl]methyl}-1-{[(2S)-oxetan-2-yl]methyl}-1H-1,3-benzodiazole-6-carboxylic acid] | < 50
21 | C[C@H]1C[C@@H](Oc2cccc(COc3ccc(C#N)cc3F)c2)CCN1Cc1nc2ccc(C(=O)O)cc2n1C[C@@H]1CCO1 [Compound 319] | < 50
22 | N#Cc1ccc(OCc2nccc(OC3CCN(Cc4nc5c(F)cc(C(=O)O)cc5n4CC4(CF)CC4)CC3)n2)c(F)c1 [Compound 314] | < 50
23 | Cc1ccc(Oc2cccc(CN3CCN(Cc4nc5ccc(C(=O)O)cc5n4C[C@@H]4CCO4)CC3)c2)cc1 [Compound 35, 2-[(4-{[3-(4-methylphenoxy)phenyl]methyl}piperazin-1-yl)methyl]-1-{[(2S)-oxetan-2-yl]methyl}-1H-1,3-benzodiazole-6-carboxylic acid] | > 500
24 | Cc1ccc(Nc2cccc(C(=O)N3CCN(Cc4nc5ccc(C(=O)O)cc5n4C[C@@H]4CCO4)CC3)c2)c(Cl)c1 [Compound 50, 2-[(4-{3-[(2-chloro-4-methylphenyl)amino]benzoyl}piperazin-1-yl)methyl]-1-{[(2S)-oxetan-2-yl]methyl}-1H-1,3-benzodiazole-6-carboxylic acid] | > 500
25 | CCn1cncc1Cn1c(CN2CCC(Cc3cncc(COc4ccc(Cl)cc4Cl)c3)CC2)nc2ccc(C(=O)O)cc21 [Compound 139, 2-{[4-({5-[(2,4-dichlorophenoxy)methyl]pyridin-3-yl}methyl)piperidin-1-yl]methyl}-1-[(1-ethyl-1H-imidazol-5-yl)methyl]-1H-1,3-benzodiazole-6-carboxylic acid] | < 50
26 | O=C(O)c1ccc2nc(CN3CCC(Oc4ccnc(COc5ccc(Cl)cc5F)c4)CC3)n(Cc3ccno3)c2c1 [Compound 266, 2-{[4-({2-[(4-chloro-2-fluorophenoxy)methyl]pyridin-4-yl}oxy)piperidin-1-yl]methyl}-1-[(1,2-oxazol-5-yl)methyl]-1H-1,3-benzodiazole-6-carboxylic acid] | < 50
27 | O=C(O)c1ccc2nc(CN3CCC(Oc4ccnc(COc5ccc(Cl)cc5)c4)CC3)n(C[C@@H]3CCO3)c2c1 [Compound 352] | < 50
28 | O=C(O)c1ccc2nc(CN3CCC(Oc4cccc(COc5ccc(Cl)cc5F)n4)CC3)n(Cc3cnco3)c2c1 [Compound 269, 2-{[4-({6-[(4-chloro-2-fluorophenoxy)methyl]pyridin-2-yl}oxy)piperidin-1-yl]methyl}-1-[(1,3-oxazol-5-yl)methyl]-1H-1,3-benzodiazole-6-carboxylic acid] | < 50
29 | CN(C)C(=O)c1ccc(OCc2ccc(C(=O)N3CCN(Cc4nc5ccc(C(=O)O)cc5n4C[C@@H]4CCO4)CC3)o2)c(F)c1 [Compound 49, 2-{[4-(5-{[4-(dimethylcarbamoyl)-2-fluorophenoxy]methyl}furan-2-carbonyl)piperazin-1-yl]methyl}-1-{[(2S)-oxetan-2-yl]methyl}-1H-1,3-benzodiazole-6-carboxylic acid] | > 500
